In ChEMBL document CHEMBL4177594, “Design, synthesis, and evaluation of salicyladimine derivatives as multitarget-directed ligands against Alzheimer's disease” (Bioorg Med Chem, 2017):
Active and inactive are the calls of the source. The calls are words filed in the database; no cut-off is given here.

What was measured:
PC-12 [1] = assay: Neuroprotective activity against H2O2-induced cytotoxicity in rat PC12 cells assessed as increase in cell viability at 6.25 to 25 uM preincubated for 24 hrs followed by H2O2 addition and measured after 24 hrs by MTT assay; format: functional, cell-based
[2] = Antioxidant activity assessed as ABTS radical scavenging activity at 25 uM after 6 mins; format: functional
in vitro = assay: in vitro; set-up: dose or concentration left out as unconfirmed; settings: PAMPA
Description: Permeability of the compound at 100 mg/ml after 16 hrs by BBB-PAMPA method

PC-12 [3] = assay: Neuroprotective activity against H2O2-induced apoptosis in rat PC12 cells assessed as apoptotic cells at 12.5 uM after 24 hrs by Annexin V/FITC/propidium iodide staining-based flow cytometry (reference value: 52.3%); format: functional
[4] = Metal chelating activity assessed as compound-Fe3+ complex formation after 30 mins by UV-Vis spectrophotometry based Job's plot
PC-12 [5] = assay: Neuroprotective activity against H2O2-induced apoptosis in rat PC12 cells assessed as viable cells level at 50 uM after 24 hrs by Annexin V/FITC/propidium iodide staining-based flow cytometry (reference value: 96.2%); format: functional
[6] = biological target: T1, Amine oxidase [flavin-containing] A (Homo sapiens, UniProt P21397); assay: Inhibition of human MAO-A at 200 uM using p-tyramine as substrate preincubated for 15 mins followed by substrate addition measured after 20 mins by fluorescence-based Amplex Red MAO assay
T1 sequence (P21397 whole entry): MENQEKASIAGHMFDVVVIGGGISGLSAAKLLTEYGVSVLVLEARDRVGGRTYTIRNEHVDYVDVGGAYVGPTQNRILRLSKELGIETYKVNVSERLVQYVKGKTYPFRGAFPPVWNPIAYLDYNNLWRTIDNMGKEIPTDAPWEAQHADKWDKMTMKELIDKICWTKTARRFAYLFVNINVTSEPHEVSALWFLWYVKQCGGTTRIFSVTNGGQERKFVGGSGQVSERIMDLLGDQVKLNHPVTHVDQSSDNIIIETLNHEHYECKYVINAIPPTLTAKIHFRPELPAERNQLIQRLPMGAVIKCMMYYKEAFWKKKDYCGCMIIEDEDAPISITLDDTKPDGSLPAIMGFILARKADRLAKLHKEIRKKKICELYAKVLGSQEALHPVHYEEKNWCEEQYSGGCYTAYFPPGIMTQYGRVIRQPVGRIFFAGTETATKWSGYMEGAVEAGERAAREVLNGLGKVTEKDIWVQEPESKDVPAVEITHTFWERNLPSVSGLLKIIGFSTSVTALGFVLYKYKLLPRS

Question: With Oc1ccc(/C=N/c2ccc(OCc3ccccc3)cc2)c(O)c1O as the compound, how does the Activity (PC-12 [1]) read?
Answer: Active

Question: And the Activity (umolequiv/umol) [2]?
Answer: 0.67

Question: What about the Papp at 16 h (in vitro) of the same compound?
Answer: 5.75 ×10⁻⁶ cm/s

Question: And the Activity (PC-12 [3])?
Answer: 29.9%

Question: What about the log K [4] of the same compound?
Answer: 6.19

Question: And the Activity (PC-12 [5])?
Answer: 91.1%

Question: What about the “inhibition (INH)” value [6] of the same compound?
Answer: Not Active
